Laboratory results reported in patent publication US9808003B2, “Herbicidally active 2-(substituted-phenyl)-cyclopentane-1,3-dione compounds and derivatives thereof” (Syngenta Limited, priority 2013, dated 2017).

Legend:
Type in all cases: in vivo
[1] = tested on: Spring Barley “Harrington”; experiment: Test 1B glasshouse assay, post-emergence herbicidal activity against cereal crops
Description: (§1) Biological Example 1B tests the herbicidal activity of“technical” compounds (i.e. compounds not previously formulated before the test), as the herbicides under test.
(§2) An “instant formulation”, known as the “IF50”, containing 50 g/liter (i.e. 5% w/v) of the “technical” (i.e. unformulated) active ingredient (i.e. the herbicide under test), is prepared by dissolving the active ingredient in a mixture of organic solvents and emulsifier, details of which are provided in the Table below.
(§3) This IF50 is mixed with a small, variable amount of acetone to aid dissolution, before addition of a 0.5% v/v aqueous solution of the adjuvant Adigor™ (an adjuvant containing rapeseed oil methyl ester, ethoxylated alcohols, and a mixture of heavy aromatic hydrocarbons, e.g. available from Syngenta), as the aqueous diluent, to form an aqueous spray solution which contains a predetermined concentration of the active ingredient (which varies depending on the application rate of the active ingredient to the plants) and 0.5% v/v of the adjuvant Adigor™. This aqueous spray solution is suitable for spraying onto plants.
(§4) Seeds of a variety of test species are sown in standard soil in pots. After cultivation for 14 days under controlled conditions in a glasshouse (at 22/16° C., day/night; 16 hours light; 65% humidity), the plants are sprayed post-emergence with the above-mentioned aqueous spray solution containing inter alia the “technical” active ingredient (i.e. the herbicide under test) and the adjuvant Adigor™.
(§5) The test plants are then grown on under controlled conditions in the glasshouse (at 22/16° C., day/night; 16 hours light; 65% humidity) and are watered twice daily. 14 days after application of the test herbicide, the test is evaluated visually for percentage phytotoxicity to the plant (where 100%=total damage to plant; 0%=no damage to plant).
(§6) More specifically, post-emergence herbicidal activity (phytotoxicity) data, on certain tested grassy monocotyledonous weeds (and/or plants of the type Gramineae) and cereal crops in the glasshouse, are measured 14 days after application of the herbicide (14 DAA), typically for inter alia one or more of the following application rates: • (a) a post-emergence application rate of 60 g/ha of the test herbicide with or without 50 g/ha of cloquintocet-mexyl safener, and • (b) a post-emergence application rate of 90 g/ha of the test herbicide with 50 g/ha of cloquintocet-mexyl safener, and • (c) a post-emergence application rate of 120 g/ha of the test herbicide with 50 g/ha of cloquintocet-mexyl safener.
(§7) The cloquintocet-mexyl, when used, is present in the formulation containing the herbicide under test dissolved in acetone plus IF50.
(§8) The range of herbicide application rates tested sometimes includes application rates other than those shown above, and the rates can vary depending on the herbicide under test.
(§9) Herbicidal activity (phytotoxicity) is evaluated visually, and an assessed percentage phytotoxicity score is given for each herbicidal application on each plant species (with 100%=total damage to plant; 0%=no damage to plant; the assessment is recorded in increments of 1%). Two replicates are made for each experiment, and the mean herbicidal activity (phytotoxicity) data is reported.

Winter Barley “Suzuka” = experiment: as above
Description: as §1, §2, §3, §4, §5, §6, §7, §8, §9

Winter Wheat “Hereward” = experiment: as above
Description: as §1, §2, §3, §4, §5, §6, §7, §8, §9

[2] = tested on: Lolium multiflorum (LOLMU); experiment: Test 1B glasshouse assay, post-emergence herbicidal activity against grassy weeds; settings: 14 DAA
Description: as §1, §2, §3, §4, §5, §6, §7, §8, §9
(§10) For compounds A34, A98, A99, A87, A100, A101, A89, A120, A120A, A120B, A23, A127, A128, A89, A112 and A113 the tested weeds were as follows: Avena fatua (AVEFA), Lolium multiflorum (LOLMU), Setaria viridis (SETVI), Poa annua (POAAN), Alopecurus myosuroides (ALOMY). All five of these are grassy monocotyledonous weeds. Except for SETVI, these are all “cool-season” grassy monocotyledonous weeds.

Setaria viridis (SETVI) = experiment: as above; settings: 14 DAA
Description: as §1, §2, §3, §4, §5, §6, §7, §8, §9, §10

Poa annua (POAAN) = experiment: as above; settings: 14 DAA
Description: as §1, §2, §3, §4, §5, §6, §7, §8, §9, §10

Avena fatua (AVEFA) [3] = experiment: as above; settings: 14 DAA
Description: as §1, §2, §3, §4, §5, §6, §7, §8, §9, §10

[4] = tested on: Alopecurus myosuroides (ALOMY); experiment: as above; settings: 14 DAA
Description: as §1, §2, §3, §4, §5, §6, §7, §8, §9, §10

[5] = tested on: Echinochloa crus-galli (ECHCG); experiment: Test 1A glasshouse assay, post-emergence herbicidal activity; settings: Echinochloa crus-galli, 312 h, application rate 250 g/ha, 13 days after application, visual (100%=total damage; 0%=no damage), read-out: Post-emergence Herbicidal Activity (% Phytotoxicity) ECHCG
Method in brief: (§11)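 Post-emergence: plants sprayed after 8 days' glasshouse growth (24/16° C, 14 h light, 65% humidity) with acetone/water (50:50) formulation containing 0.5% Tween 20. Visual % phytotoxicity (0 = none, 100 = total damage) scored 13 days after application.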

Avena fatua (AVEFA) [6] = experiment: as above; settings: Avena fatua, 312 h, application rate 250 g/ha, 13 days after application, visual (100%=total damage; 0%=no damage), read-out: Post-emergence Herbicidal Activity (% Phytotoxicity) AVEFA
Method in brief: as §11

[7] = tested on: Alopecurus myosuroides (ALOMY); experiment: as above; settings: Alopecurus myosuroides, 312 h, application rate 250 g/ha, 13 days after application, visual (100%=total damage; 0%=no damage), read-out: Post-emergence Herbicidal Activity (% Phytotoxicity) ALOMY
Method in brief: as §11

Lolium perenne (LOLPE) = experiment: as above; settings: Lolium perenne, 312 h, application rate 250 g/ha, 13 days after application, visual (100%=total damage; 0%=no damage), read-out: Post-emergence Herbicidal Activity (% Phytotoxicity) LOLPE
Method in brief: as §11

[8] = herbicide 30 g/ha, cloquintocet-mexyl 50 g/ha
[9] = herbicide 45 g/ha, cloquintocet-mexyl 50 g/ha
[10] = herbicide 60 g/ha, cloquintocet-mexyl 0 g/ha
[11] = herbicide 60 g/ha, cloquintocet-mexyl 50 g/ha
[12] = 30 g/ha herbicide, 50 g/ha cloquintocet-mexyl
[13] = 45 g/ha herbicide, 50 g/ha cloquintocet-mexyl
[14] = 60 g/ha herbicide, 0 g/ha cloquintocet-mexyl
[15] = 60 g/ha herbicide, 50 g/ha cloquintocet-mexyl

SMILES	Percentage Phytotoxicity Spring Barley “Harrington” [1, 8]	Percentage Phytotoxicity Spring Barley “Harrington” [1, 9]	Percentage Phytotoxicity Spring Barley “Harrington” [1, 10]	Percentage Phytotoxicity Spring Barley “Harrington” [1, 11]	Percentage Phytotoxicity Winter Barley “Suzuka” (Winter Barley “Suzuka”; [8])	Percentage Phytotoxicity Winter Barley “Suzuka” (Winter Barley “Suzuka”; [9])	Percentage Phytotoxicity Winter Barley “Suzuka” (Winter Barley “Suzuka”; [10])	Percentage Phytotoxicity Winter Barley “Suzuka” (Winter Barley “Suzuka”; [11])	Percentage Phytotoxicity Winter Wheat “Hereward” (Winter Wheat “Hereward”; [8])	Percentage Phytotoxicity Winter Wheat “Hereward” (Winter Wheat “Hereward”; [9])	Percentage Phytotoxicity Winter Wheat “Hereward” (Winter Wheat “Hereward”; [10])	Percentage Phytotoxicity Winter Wheat “Hereward” (Winter Wheat “Hereward”; [11])	Post-emergence herbicidal activity, percentage phytotoxicity, LOLMU [2, 12]	Post-emergence herbicidal activity, percentage phytotoxicity, LOLMU [2, 13]	Post-emergence herbicidal activity, percentage phytotoxicity, LOLMU [2, 14]	Post-emergence herbicidal activity, percentage phytotoxicity, LOLMU [2, 15]	Post-emergence herbicidal activity, percentage phytotoxicity, SETVI (Setaria viridis (SETVI); [12])	Post-emergence herbicidal activity, percentage phytotoxicity, SETVI (Setaria viridis (SETVI); [13])	Post-emergence herbicidal activity, percentage phytotoxicity, SETVI (Setaria viridis (SETVI); [14])	Post-emergence herbicidal activity, percentage phytotoxicity, SETVI (Setaria viridis (SETVI); [15])	other results
Cc1cc(C)c(C2C(=O)C[C@@H](CCNC(=O)c3ccc(Br)cn3)C2=O)c(C)c1 (stereo partly drawn) [Compound A120A]	30%	60%	85%	73%	23%	75%	93%	83%	53%	60%	73%	65%	97%	100%	100%	100%	100%	100%	100%	100%	Post-emergence herbicidal activity, percentage phytotoxicity, POAAN (Poa annua (POAAN); [12]): 3%; Post-emergence herbicidal activity, percentage phytotoxicity, POAAN (Poa annua (POAAN); [13]): 5%; Post-emergence herbicidal activity, percentage phytotoxicity, POAAN (Poa annua (POAAN); [14]): 30%; Post-emergence herbicidal activity, percentage phytotoxicity, POAAN (Poa annua (POAAN); [15]): 10%; Post-emergence herbicidal activity, percentage phytotoxicity, AVEFA (Avena fatua (AVEFA) [3]; [12]): 90%; Post-emergence herbicidal activity, percentage phytotoxicity, AVEFA (Avena fatua (AVEFA) [3]; [13]): 95%; Post-emergence herbicidal activity, percentage phytotoxicity, AVEFA (Avena fatua (AVEFA) [3]; [14]): 97%; Post-emergence herbicidal activity, percentage phytotoxicity, AVEFA (Avena fatua (AVEFA) [3]; [15]): 97%; Post-emergence herbicidal activity, percentage phytotoxicity, ALOMY [4, 12]: 80%; Post-emergence herbicidal activity, percentage phytotoxicity, ALOMY [4, 13]: 88%; Post-emergence herbicidal activity, percentage phytotoxicity, ALOMY [4, 14]: 95%; Post-emergence herbicidal activity, percentage phytotoxicity, ALOMY [4, 15]: 90%
Cc1cc(C)c(C2C(=O)C[C@H](CCNC(=O)c3ccc(Br)cn3)C2=O)c(C)c1 (stereo partly drawn) [Compound A120B]	3%	10%	53%	23%	3%	9%	75%	13%	7%	10%	58%	13%	58%	73%	83%	73%	40%	65%	68%	68%	Post-emergence herbicidal activity, percentage phytotoxicity, POAAN (Poa annua (POAAN); [12]): 0%; Post-emergence herbicidal activity, percentage phytotoxicity, POAAN (Poa annua (POAAN); [13]): 0%; Post-emergence herbicidal activity, percentage phytotoxicity, POAAN (Poa annua (POAAN); [14]): 4%; Post-emergence herbicidal activity, percentage phytotoxicity, POAAN (Poa annua (POAAN); [15]): 4%; Post-emergence herbicidal activity, percentage phytotoxicity, AVEFA (Avena fatua (AVEFA) [3]; [12]): 3%; Post-emergence herbicidal activity, percentage phytotoxicity, AVEFA (Avena fatua (AVEFA) [3]; [13]): 10%; Post-emergence herbicidal activity, percentage phytotoxicity, AVEFA (Avena fatua (AVEFA) [3]; [14]): 38%; Post-emergence herbicidal activity, percentage phytotoxicity, AVEFA (Avena fatua (AVEFA) [3]; [15]): 48%; Post-emergence herbicidal activity, percentage phytotoxicity, ALOMY [4, 12]: 43%; Post-emergence herbicidal activity, percentage phytotoxicity, ALOMY [4, 13]: 58%; Post-emergence herbicidal activity, percentage phytotoxicity, ALOMY [4, 14]: 73%; Post-emergence herbicidal activity, percentage phytotoxicity, ALOMY [4, 15]: 70%
Cc1cc(C)c(C2=C(OC(=O)c3ccc(F)cc3)CC(CCNC(=O)c3ccc(Br)cn3)C2=O)c(C)c1 (stereo not drawn) [Compound P17]																					pest or weed control at 250 g/ha [5]: 100%; pest or weed control at 250 g/ha (Avena fatua (AVEFA) [6]): 100%; pest or weed control at 250 g/ha [7]: 100%; pest or weed control at 250 g/ha (Lolium perenne (LOLPE)): 100%
CCCCS(=O)(=O)OC1=C(c2c(C)cc(C)cc2C)C(=O)C(CCNC(=O)c2ccc(Br)cn2)C1 (stereo not drawn) [Compound P18]																					pest or weed control at 250 g/ha [5]: 100%; pest or weed control at 250 g/ha (Avena fatua (AVEFA) [6]): 90%; pest or weed control at 250 g/ha [7]: 100%; pest or weed control at 250 g/ha (Lolium perenne (LOLPE)): 100%
